PubChem BioAssay (NCI)
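Following 48 hours of exposure in 96-well plates, responses at five concentrations were used to interpolate endpoints linearly. TGI marks complete inhibition of growth.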

How the values were obtained:
Assay in all cases: NCI-60 cell line screen, 48 h
EKVX NSCLC = test system: EKVX NSCLC
U251 CNS = test system: U251 CNS
OVCAR-3 ovarian = test system: OVCAR-3 ovarian
PC-3 prostate = test system: PC-3 prostate
HCT-15 colon = test system: HCT-15 colon
UACC-62 melanoma = test system: UACC-62 melanoma
HOP-92 NSCLC = test system: HOP-92 NSCLC
CCRF-CEM leukemia = test system: CCRF-CEM leukemia
MDA-MB-231 breast = test system: MDA-MB-231 breast
A549 NSCLC = test system: A549 NSCLC
SK-MEL-5 melanoma = test system: SK-MEL-5 melanoma
SNB-19 CNS = test system: SNB-19 CNS
MCF7 breast = test system: MCF7 breast
TK-10 renal = test system: TK-10 renal
UACC-257 melanoma = test system: UACC-257 melanoma
SK-MEL-2 melanoma = test system: SK-MEL-2 melanoma
OVCAR-4 ovarian = test system: OVCAR-4 ovarian
COLO 205 colon = test system: COLO 205 colon
ACHN renal = test system: ACHN renal
CAKI-1 renal = test system: CAKI-1 renal
M14 melanoma = test system: M14 melanoma
NCI-H226 lung = test system: NCI-H226 lung
NCI/ADR-RES ovarian = test system: NCI/ADR-RES ovarian
DU-145 prostate = test system: DU-145 prostate
A498 renal = test system: A498 renal
OVCAR-5 ovarian = test system: OVCAR-5 ovarian
UO-31 renal = test system: UO-31 renal
HT29 colon = test system: HT29 colon
RXF 393 renal = test system: RXF 393 renal
SK-MEL-28 melanoma = test system: SK-MEL-28 melanoma
T-47D breast = test system: T-47D breast
SNB-75 CNS = test system: SNB-75 CNS
SF-268 CNS = test system: SF-268 CNS
SF-539 CNS = test system: SF-539 CNS
HOP-62 NSCLC = test system: HOP-62 NSCLC
RPMI-8226 leukemia = test system: RPMI-8226 leukemia
OVCAR-8 ovarian = test system: OVCAR-8 ovarian
K-562 leukemia = test system: K-562 leukemia
SF-295 CNS = test system: SF-295 CNS
MOLT-4 leukemia = test system: MOLT-4 leukemia
HS 578T breast = test system: HS 578T breast
NCI-H23 lung = test system: NCI-H23 lung
KM12 colon = test system: KM12 colon
IGROV1 ovarian = test system: IGROV1 ovarian
SK-OV-3 ovarian = test system: SK-OV-3 ovarian
MALME-3M melanoma = test system: MALME-3M melanoma
MDA-N = test system: MDA-N
SR leukemia = test system: SR leukemia
NCI-H460 lung = test system: NCI-H460 lung
HCC-2998 colon = test system: HCC-2998 colon
SW-620 colon = test system: SW-620 colon
LOX IMVI melanoma = test system: LOX IMVI melanoma
MDA-MB-435 = test system: MDA-MB-435
HCT-116 colon = test system: HCT-116 colon
HL-60(TB) leukemia = test system: HL-60(TB) leukemia
NCI-H522 lung = test system: NCI-H522 lung
786-0 renal = test system: 786-0 renal
SN12C renal = test system: SN12C renal

Measured: TGI

CN(C)c1ccc(/C=C2\C[C@H]3[C@@H]4CCc5cc(O)ccc5[C@H]4CC[C@]3(C)C2=O)cc1
62.8 µM: SF-539 CNS
69 µM: MDA-MB-231 breast
86.1 µM: UACC-62 melanoma
30.5 µM: HS 578T breast
61 µM: SF-268 CNS
67.3 µM: NCI-H226 lung
not listed: HCT-116 colon | HL-60(TB) leukemia | NCI-H522 lung | 786-0 renal | SN12C renal
> 100 µM: all other assays above

C/C(=C\CNc1nc(Cl)nc2nc[nH]c12)CO
not listed: U251 CNS | HCT-15 colon | SK-MEL-2 melanoma
> 100 µM: all other assays above
